Measured values as given in patent US20040229947A1, “Method of treating hyperactive bladder using phenoxyacetic acid derivatives” (KISSEI PHARMACEUTICAL CO., LTD., priority 2003, published 2004).

How the values were obtained:
[1] = test system: PGE2-induced bladder hyperactivity; assay: Prostaglandin (PG) E2-induced rat overactive bladder model, cystometrogram in conscious rats; assay type: in vivo; settings: intragastric, 0.1, 1 or 10 mg/kg as free body, 1, 2, 4 hours after administration
Protocol: Rats were anesthetized with pentobarbital sodium. Each cannula was implanted into the urinary bladder and stomach, tunneled subcutaneously and secured on the back of the neck and closed. Seven days after the cannula implantation, cystometrogram of the freely-moved conscious rats were measured. Saline was continuously instilled into the bladder at a rate of 6 mL/hour, and after the cystometric parameters were stabilized, PGE2 (60 μmol/L)-containing saline was instilled continuously instead of the saline into the bladder. After the stable shortening of the micturition interval was confirmed under the condition, ethyl(−)-2-[4-(2-{[(1S,2R)-2-hydroxy-2-(4-hydroxyphenyl) -1-methylethyl]amino}ethyl)-2,5-dimethylphenoxy] acetate hydrochloride (0 (vehicle), 0.1, 1 or 10 mg/kg as doses of the free body) was administered intragastrically. Cystometric parameters were measured for 4 hours after the administration and were expressed as a percentage to those at the pre-administration (0 hour).

[2] = test system: lower urinary tract partially obstructed overactive bladder; assay: Lower urinary tract partially obstructed rat overactive bladder model, cystometrogram; assay type: in vivo; settings: intragastric
Protocol: Rats were anesthetized with pentobarbital sodium. After urethra was ligated with a tube (width: 1 mm) by thread, the tube was removed. Six weeks after the lower urinary tract operation, the implanted thread was removed, and each cannula was implanted into the urinary bladder and stomach, tunneled subcutaneously and secured on the back of the neck and closed. The next day, cystometrogram of freely-moved conscious rats were measured. Saline was instilled into the urinary bladder at a rate of 12 mL/hour. The saline instillation was stopped every micturition. After the stable spontaneous small bladder contraction in filling phase was confirmed, ethyl (−)-2-[4-(2-{[(1S,2R)-2-hydroxy-2-(4-hydroxyphenyl)-1-methylethyl]amino}ethyl)-2,5-dimethylphenoxy] acetate hydrochloride (0 (vehicle), 1 or 10 mg/kg as doses of free body) or tolterodine (10 mg/kg) was administered intragastrically. The micturition parameters at 1 hour after the administration of ethyl (−)-2-[4-(2-{[(1S,2R)-2-hydroxy-2-(4-hydroxyphenyl)-1-methylethyl]amino}ethyl)-2,5-dimethylphenoxy] acetate hydrochloride or tolterodine were measured and were expressed as a percentage to that at the pre-administration (0 hour).

[3] = test system: spinal cord injury-induced overactive bladder; assay: Spinal cord injury-induced overactive bladder model, cystometrogram; assay type: in vivo, rat; settings: intragastric, 10 mg/kg as free body; 1 hour after administration; FIG. 7
Protocol: In ether anesthetized rats, spinal transactions were performed at the level of Th9-Th10. Each rat was treated with amikacin 10 mg/body, i.m. for 7 days, and micturition management was done 2 times/day for 2 weeks to prevent over-distension of the bladder. About 6 weeks after the spinal cord operation, rats were anesthetized with pentobarbital sodium and each cannula (PE-50: Nihon Becton Dickinson) was implanted into the urinary bladder and stomach, tunneled subcutaneously, secured on the back of the neck and closed. Seven days after the cannula implantation, cystometrogram was performed. Saline was instilled into the urinary bladder at a rate of 12 mL/hour. The saline instillation was stopped every micturition. After the stable spontaneous small bladder contraction in filling phase was confirmed, ethyl (—)-2-[4-(2-{[(1S,2R)-2-hydroxy-2-(4-hydroxyphenyl)-1-methylethyl]amino}ethyl)-2,5-dimethylphenoxy] acetate hydrochloride (0 (vehicle) or 10 mg/kg as dose of free body) was administered intragastrically. The micturition parameter at 1 hour after the administration of ethyl (−)-2-[4-(2-{[(1S,2R)-2-hydroxy-2-(4-hydroxyphenyl)-1-methylethyl]amino}ethyl)-2,5-dimethylphenoxy] acetate hydrochloride was measured and was expressed as a percentage to that at the pre-administration (0 hour).

isolated monkey detrusor = assay: Effects on the tone of the isolated monkey detrusor (Magnus method); settings: isolated cynomolgus monkey detrusor; for EC50: Primates, read-out: EC50, reduction of the tone of the isolated monkey detrusor
Protocol: (§1) The detrusor of the cynomolgus monkey (both sexes) was isolated and dissected. Tracheal, atrial and urethral dissections were also prepared. Then the effect of (−)-2-[4-(2-{[(1S,2R)-2-hydroxy-2-(4-hydroxyphenyl)-1-methylethyl]amino}ethyl)-2,5-dimethylphenoxy] acetic acid on the tone of the detrusor preparation was tested. Carbachol-induced tonic contractions of the tracheal preparations, the heart rate of the atrial preparations and endothelin-1-induced tonic contractions of the urethral preparations were also investigated using the Magnus method.

isolated trachea = assay: Carbachol-induced tonic contraction of isolated tracheal preparations (beta 2-AR-stimulated function); parameters: species or system cynomolgus monkey; settings: for effect on carbachol-induced tonic contraction of the isolated trachea: beta 2-AR-stimulated function
Protocol: as §1

isolated atria = assay: Heart rate of isolated atrial preparations (beta1-AR-stimulated function); parameters: species or system cynomolgus monkey
Protocol: as §1

isolated urethra = assay: Endothelin-1-induced tonic contraction of isolated urethral preparations; parameters: species or system cynomolgus monkey
Protocol: as §1

CCOC(=O)COc1cc(C)c(CCN[C@@H](C)[C@H](O)c2ccc(O)cc2)cc1C.Cl [Compound 1, ethyl (−)-2-[4-(2-{[(1S,2R)-2-hydroxy-2-(4-hydroxyphenyl)-1-methylethyl]amino}ethyl)-2,5-dimethyl-phenoxy] acetate hydrochloride]
micturition interval ([1]; FIGS. 1 to 3): prolonged the micturition interval
micturition volume ([1]; FIGS. 4 to 6): increased the micturition volume dose-dependently
amplitude of spontaneous small bladder contractions in filling phase ([2]; 1 or 10 mg/kg as free body, 1 hour after administration, FIG. 8): decreased the amplitude
frequency of spontaneous small bladder contractions in filling phase ([2]; 1 or 10 mg/kg as free body, 1 hour after administration, FIG. 9): decreased
micturition pressure ([2]; 1 or 10 mg/kg as free body, 1 hour after administration, FIG. 10): did not affect the micturition pressure
potency on spontaneous small bladder contractions relative to tolterodine ([2]; tolterodine 10 mg/kg, FIGS. 8 and 9): stronger than that of tolterodine
frequency of spontaneous small bladder contraction in filling phase [3]: decreased the frequency

CCN(CC)CC#CCOC(=O)C(O)(c1ccccc1)C1CCCCC1 (centres unmarked) [oxybutynin]
relaxation of the isolated monkey detrusor (isolated monkey detrusor): No significant relaxation

CCCOC(C(=O)OC1CCN(C)CC1)(c1ccccc1)c1ccccc1 [propiverine]
relaxation of the isolated monkey detrusor (isolated monkey detrusor): No significant relaxation

CC(C)NCC(O)c1ccc(O)c(O)c1 (centres unmarked) [isoproterenol, reference compound]
EC50 (isolated monkey detrusor): 0.19 µM
effect on carbachol-induced tonic contraction of the isolated trachea (isolated trachea): reduced the carbachol-induced tonic contraction

Cc1cc(OCC(=O)O)c(C)cc1CCN[C@@H](C)[C@H](O)c1ccc(O)cc1 [(−)-2-[4-(2-{[(1S,2R)-2-hydroxy-2-(4-hydroxyphenyl)-1-methylethyl]amino}ethyl)-2,5-dimethylphenoxy] acetic acid]
EC50 (isolated monkey detrusor): 0.82 µM
effect on heart rate of the isolated atria (isolated atria; beta1-AR-stimulated function): less effect
detrusor selectivity compared with the atria (isolated atria; detrusor versus atria): ~80 times
effect on carbachol-induced tonic contraction of the isolated trachea (isolated trachea): less effect
detrusor selectivity compared with the trachea (isolated trachea; detrusor versus trachea): about 1200 times
effect on endothelin-1-induced tonic contraction of the isolated urethra (isolated urethra): no effect
